What was measured:
[1] = target: T1, human intelectin-1 (hIntL-1) (Homo sapiens, UniProt Q8WWA0); assay: competitive inhibition of hIntL-1 binding to β-Galf
Target sequence in this assay (Q8WWA0 19-298): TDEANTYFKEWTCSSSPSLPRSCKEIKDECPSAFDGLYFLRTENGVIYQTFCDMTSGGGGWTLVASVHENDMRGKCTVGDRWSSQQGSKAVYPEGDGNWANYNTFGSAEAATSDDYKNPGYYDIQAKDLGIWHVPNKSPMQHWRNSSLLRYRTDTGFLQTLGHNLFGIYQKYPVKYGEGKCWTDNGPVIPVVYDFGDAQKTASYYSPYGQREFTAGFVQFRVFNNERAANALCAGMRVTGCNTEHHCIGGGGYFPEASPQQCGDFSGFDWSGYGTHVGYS

[2] = target: T1, human intelectin-1 (hIntL-1); assay: ELISA-like assay on immobilized biotinylated carbohydrate; format: binding
Target sequence in this assay (Q8WWA0 whole entry): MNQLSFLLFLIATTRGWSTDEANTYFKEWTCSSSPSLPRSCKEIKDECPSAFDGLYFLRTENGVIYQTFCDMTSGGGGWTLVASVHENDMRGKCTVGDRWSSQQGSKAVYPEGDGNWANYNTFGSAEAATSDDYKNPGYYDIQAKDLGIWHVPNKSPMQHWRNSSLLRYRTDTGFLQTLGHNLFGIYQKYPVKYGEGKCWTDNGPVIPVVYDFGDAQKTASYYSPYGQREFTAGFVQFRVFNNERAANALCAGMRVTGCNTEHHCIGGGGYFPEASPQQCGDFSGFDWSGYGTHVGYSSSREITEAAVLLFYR

Compound	competitive inhibition of hIntL-1 binding to β-Galf [1]	Kd [2] [nM]
O=P(O)(O)OCC(O)CO (centres unmarked) [glycerol-1-phosphate]	glycerol and glycerol-1-phosphate— competitively inhibit the lectin from binding to β-Galf	–
β-D-Galf (biotinylated, immobilized) [β-Galf]	–	85 ± 14
